Tests used:
[1] = target: T1, MHC class I/SIINFEKL complex on IMG cells (Mus musculus, UniProt P01901); assay: SIINFEKL binding to IMG cells, flow cytometry with 25-D1.16 antibody; assay type: cell-based, murine; settings: 25 μg/mL BzFβ 0-4 h
T1 construct: host or cells: IMG cell line
Procedure: By using an MHC class I H-2K^b specific antibody, a relative comparison of the surface MHC class I was measured before and after BzFβ treatment of DC2.4 and IMG cells. These cells were treated with 25 μg/mL BzFβ for 0-4 h. Cells were centrifuged and washed using cold FACS buffer (DPBS with 5% FBS, 2 mM EDTA, 0.1% sodium azide). Cells were blocked with Fc block (bioLegend™; cat. no. 101320) for 10 min to 15 min to inhibit non-specific binding, followed by staining with fluorophore-conjugated antibodies; one set of cells was stained with the PE-labeled MHC/SIINFEKL specific antibody (clone 25-D1.16, Invitrogen™, Thermo Fisher Scientific Inc., Waltham, MA; cat. no. 12-5743-82), and the other set was stained with the PE-labeled MHC class I H-2Kb specific antibody (AF6-88.5.5.3,Invitrogen™, Thermo Fisher Scientific Inc., Waltham, MA; cat. no. 12-5958-82) […], for 30 min at 4° C. After washing, the cells were subjected to flow cytometric analysis with the Attune NxT Flow Cytometer (Invitrogen). Cells were gated based on live single-cell populations and positives were assessed using isotype controls and fluor-minus-one analysis when needed. Data were analyzed using the Attune NxT software or FlowJo versions 10.7 and 10.8.

[2] = target: T2, MHC class I/SIINFEKL complex on DC2.4 (Mus musculus, UniProt P01901); assay: SIINFEKL binding to DC2.4, flow cytometry with 25-D1.16 antibody; assay type: cell-based, murine
T2 construct: DC2.4 are a C57Bl/6 lineage murine cell line and as such they express MHC class I H-2Kb and H-2Db; endogenous in cells; host or cells: DC2.4 (murine dendritic cell line, from Dr. Kenneth Rock)
T2 sequence (P01901 22-369): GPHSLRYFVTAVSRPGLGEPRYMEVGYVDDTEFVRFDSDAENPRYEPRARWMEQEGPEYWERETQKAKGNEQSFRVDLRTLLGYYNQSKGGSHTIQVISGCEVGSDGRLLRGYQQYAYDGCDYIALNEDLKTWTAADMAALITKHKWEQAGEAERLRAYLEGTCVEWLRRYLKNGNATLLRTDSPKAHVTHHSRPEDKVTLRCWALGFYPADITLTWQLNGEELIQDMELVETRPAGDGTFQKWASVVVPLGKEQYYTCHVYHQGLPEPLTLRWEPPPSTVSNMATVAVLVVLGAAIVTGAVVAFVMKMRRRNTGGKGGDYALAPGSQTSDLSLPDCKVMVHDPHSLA
T2 sequence (P01887 21-119 partner): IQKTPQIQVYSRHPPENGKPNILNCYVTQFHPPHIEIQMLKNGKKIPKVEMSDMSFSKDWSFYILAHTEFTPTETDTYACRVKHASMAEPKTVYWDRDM
Procedure: To detect binding of peptides to MHC class I H2Kb molecules on various murine cells, the cells were cultured as previously described and treated for various times as indicated in results and figure legends. Cells were centrifuged and washed using cold FACS buffer (DPBS with 5% FBS, 2 mM EDTA, 0.1% sodium azide). Cells were blocked using Fc block (bioLegend™; cat. no. 101320) for 10 min to 15 min to inhibit non-specific binding, followed by staining with fluorophore-conjugated antibody PE-labeled anti-MHC I/SIINFEKL (clone 25-D1.16; Invitrogen™, Thermo Fisher Scientific Inc., Waltham, MA; cat. no. 12-5743-82), for 30 min at 4° C. After washing, the cells were subjected to flow cytometric analysis with the Attune NxT Flow Cytometer (Invitrogen). Cells were gated based on live single-cell populations and positives were assessed using isotype controls and fluor-minus-one analysis when needed. Data were analyzed using the Attune NxT software or FlowJo versions 10.7 and 10.8.
To evaluate the potential of BzFβ to enhance peptide loading under conditions used to prepare DC vaccines, 1×10^6 DC2.4 cells were pretreated with 50 μg/mL BzFβ for 1 h in a total volume of 200 μL OptiMEM, then pulsed for 1 h with concentrations of SIINFEKL (1-10 μg/mL) often used for the in vitro production of DC vaccines. The cells were then stained for 30 min in 200 μL HBSS/2% FCS containing 0.4 μg PE-labeled MHC class I/SIINFEKL specific antibody, 25-D1.16.
By using an MHC class I H-2K^b specific antibody, a relative comparison of the surface MHC class I was measured before and after BzFβ treatment of DC2.4 and IMG cells. These cells were treated with 25 μg/mL BzFβ for 0-4 h. Cells were centrifuged and washed using cold FACS buffer (DPBS with 5% FBS, 2 mM EDTA, 0.1% sodium azide). […] Cells were gated based on live single-cell populations and positives were assessed using isotype controls and fluor-minus-one analysis when needed. Data were analyzed using the Attune NxT software or FlowJo versions 10.7 and 10.8.
Cultured cells were treated for various times as indicated in results and figure legends. […] Cells were gated based on live single-cell populations and positives were assessed using isotype controls and fluor-minus-one analysis when needed. Data were analyzed using the Attune NxT software or FlowJo versions 10.7 and 10.8.

Structure (SMILES): O=C(O)/C=C/c1ccc2occc2c1 [BzFβ, (2E)-3-(1-benzofuran-5-yl)prop-2-enoic acid]
- binding of SIINFEKL to surface MHC class I [1]: able to enhance the binding of SIINFEKL
- peptide binding under DC vaccine conditions ([2]; 50 μg/mL BzFβ 1 h, then 1 h SIINFEKL 1-10 μg/mL): significant enhancement of peptide binding
- SIINFEKL peptide binding to DC2.4 ([2]; 25 or 50 μg/mL, up to 24 h): significantly enhance peptide binding
- peptide detected per cell ([2]; 2 h pretreatment 50 μg/mL BzFβ, then 1 h 1, 5 or 10 μg/mL SIINFEKL): significantly more peptide was detected per cell
- binding of SIINFEKL to surface MHC class I ([2]; DC2.4, 25 μg/mL BzFβ 0-4 h): able to enhance the binding of SIINFEKL
